Experimental data as given in patent US10597398B2, “Suppression and regeneration promoting effect of low molecular weight compound on cancer and fibrosis” (NATIONAL UNIVERSITY CORPORATION TOTTORI UNIVERSITY, priority 2015, dated 2020).

Experiments:
[1] = tested on: Wnt/β-catenin signaling; experiment: Inhibitory effect on Wnt/β-catenin signaling in liver cancer cells (HuH7-TCF4 luciferase); type: cell-based, human; settings: concentration equal to or lower than that of IC-2
How it was run: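 HuH-7 cells stably carrying a 3×TCF4-motif firefly luciferase reporter, treated 48 h at 37 °C with compounds at concentrations reducing HuH-7 growth to about 50% or less (n=3). Firefly luciferase luminescence read from lysates; 0.1% DMSO solvent control, 0.5 μM 5-FU control; Student's t-test.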

[2] = tested on: HuH-7 cells; experiment: Growth inhibitory effect on cancer cells (WST assay), Example 6.3; type: cell-based, human
Description: HuH-7 cells, a human liver cancer cell line, were cultured on 10-cm cell culture dishes (TPP Techno Plastic Products AG, Trasadingen, Switzerland) by using DMEM under conditions at 5% CO2, 37° C., and 100% humidity. When the cells were 70 to 90% confluent, 200 μL of 0.25% Trypsin/1 mM EDTA solution, which had been prepared by diluting the stock solution 10-fold with PBS (−), was added to detach the cells. Then, the cells were centrifuged at 1000 rpm for 3 min at room temperature. The cells recovered were subcultured at a 1:4 split ratio.
First, 70 to 90% confluent HuH-7 cells were harvested and seeded (n=3) at 1×10^4 cells/well of a 96-well plate (TPP). After 24 h, IC-2 was added to the cells and the mixture was cultured at 37° C. Each control sample (0 μM) used was 1% DMSO, a solvent for each compound. The concentrations of IC-2 used were 0, 1, 5, 10, 25, and 50 μM
Next, day 4 after the IC-2 treatment, 100 μL of DMEM-diluted 10% Cell Counting Kit-8 (DOJINDO LABORATORIES, Kumamoto) was added. The mixture was incubated at 37° C. for 60 min and its absorbance (at a measurement wavelength of 450 nm/control wavelength of 600 nm) was measured by using a Sunrise Rainbow RC (Tecan Group Ltd., Mannedorf, Switzerland). Absorbance for the cells alone was calculated by subtracting, from the reading obtained, absorbance for 10% Cell Counting Kit-8 alone. […]

[3] = tested on: unsorted HuH-7 cells; experiment: Mice subcutaneously transplanted with unsorted HuH-7 cells; type: in vivo; settings: mice transplanted with unsorted HuH-7 cells instead of CD44-positive HuH-7 cells
From the text: The effect of treating malignant tumors may be evaluated by imaging, endoscopic examination, biopsy, or detection of a malignant tumor marker. In addition, the effect of treating cancer stem cells may be evaluated by imaging, endoscopic examination, biopsy, or detection of a cancer stem cell marker. In addition, the effect of treating fibrosis may be evaluated by imaging, endoscopic examination, biopsy, or detection of a fibrosis marker. […] At this time, the level of a marker after administration of a therapeutic drug may be 0.7, 0.5, 0.3, or 0.1 times the level before the administration (or of a control). […] At this time, the number of marker-positive cells after administration of the therapeutic drug may be 0.7, 0.5, 0.3, or 0.1 times the number before the administration (or of a control). Note that in Example 6 below, the therapeutic effect was evaluated using mice in which CD44-positive HuH-7 cells had been subcutaneously transplanted. The present inventors also replaced the above CD44-positive HuH-7 cells by unsorted HuH-7 cells.

[4] = tested on: Wnt/β-catenin signal; settings: as described in Patent Literature 1; cited from earlier work

COc1ccc(COc2ccc(CNC(=O)N3CCC(=O)N4C(Cc5ccccc5)C(=O)N(Cc5cccc6ccccc56)CC34)cc2)cc1 (centres unmarked) [IC-2-OPMB]
inhibitory effect on Wnt/β-catenin signaling pathway in liver cancer cells compared with IC-2 [1]: more potent inhibitory effect

O=C1C(Cc2ccccc2)N2C(=O)CCN(C(=O)NCc3ccccc3)C2CN1Cc1cccc2ccccc12 (centres unmarked) [IC-2]
growth of HuH-7 cells ([2]; day 4): inhibited the growth of HuH-7 cells
IC50 ([2]; day 4, 0-50 μM, control 1% DMSO): 25.9 µM
effect of treating a malignant tumor [3]: exhibits an effect of treating a malignant tumor
Wnt/β-catenin signal in a mesenchymal stem cell and differentiation into hepatocytes [4]: inhibit a Wnt/β-catenin signal in a mesenchymal stem cell, thereby inducing differentiation of the mesenchymal stem cell into hepatocytes
